Experimental data reported in publication PMC7070167, “Cell‐permeable high‐affinity tracers for Gq proteins provide structural insights, reveal distinct binding kinetics and identify small molecule inhibitors” (British Journal of Pharmacology, 2020).
Read-outs that look alike come from different tables or passages of the source. *1 amine or outer side, *2 acyl side, *3 side chain or, on linkers, in order; H or OH if unused. Where a SMILES comes first, the peptide text is derived from it. Bridges are numbered along the chain shown (N, C = ends). [ ]: non-standard residue; d: D form. The star is where a group is joined. Leu(3R-O(AcLeu(3R-OH))) = CC(=O)N[C@H](C(=O)O[C@H](C(C)C)[C@H](N)C(=O)O)[C@H](O)C(C)C; Leu(3R-OH,Nα-propionyl) = CCC(=O)N[C@H](C(=O)*)[C@H](O)C(C)C; X1 = CC(C)[C@@H](O[*:3])[C@H](N[*:1])C(=O)[*:2]; NMeT = CN[C@H](C(=O)O)[C@@H](C)O; dPhLac = O=C(O)[C@H](O)Cc1ccccc1; NMeA = CN[C@@H](C)C(=O)O; NMeDha = C=C(NC)C(=O)O

Biological target: T1, Gq proteins (Homo sapiens, UniProt P50148)
T1 construct: Native cell membrane preparations from rat brain cortex and human blood platelets; host or cells: human platelets (intact suspension or membrane preparation)
T1 sequence (P50148 1-359): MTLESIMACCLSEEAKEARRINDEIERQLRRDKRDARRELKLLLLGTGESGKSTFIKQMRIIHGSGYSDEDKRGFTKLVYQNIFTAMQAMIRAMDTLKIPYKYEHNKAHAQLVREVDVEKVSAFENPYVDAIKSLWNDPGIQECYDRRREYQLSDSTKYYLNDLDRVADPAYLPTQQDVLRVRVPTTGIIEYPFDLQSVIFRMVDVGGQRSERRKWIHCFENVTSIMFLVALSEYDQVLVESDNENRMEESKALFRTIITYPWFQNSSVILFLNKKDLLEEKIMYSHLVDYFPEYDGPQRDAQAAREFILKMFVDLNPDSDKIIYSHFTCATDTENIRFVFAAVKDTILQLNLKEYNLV
Test: Competition binding at intact human platelets
Details: 37°C
Protocol: Apheresis‐purified human thrombocyte‐plasma concentrates (PRP) were obtained from the blood bank, University of Bonn, in accordance with ethical guidelines, and directly used. For radioligand binding assays, they were diluted with 50‐mM Tris–HCl buffer, pH 7.4, to obtain a concentration of 7.5 × 10^6 platelets/50 μl (corresponding to a 1:10 dilution).
The experiments were performed in 50‐mM Tris–HCl buffer, pH 7.4. The final assay volume of 200 μl contained 5 μl of test compound in DMSO, 50 μl of [^3H]PSB‐15900 or [^3H]PSB‐16254, respectively, in buffer, 5 nM of final concentration, and 100 μl of human platelet membrane preparation (50 μg of protein) or intact human platelets (7.5 × 10^6 cells/vial). Non‐specific binding was determined in the presence of 5‐μM FR. The incubation was started by the addition of membrane preparation and was performed at 37°C for 1 hr with gentle shaking. It was terminated by rapid vacuum filtration through GF/C glass‐fibre filters using a Brandel 24‐well harvester. The filters were rinsed three times with approximately 3 ml each of ice‐cold Tris–HCl buffer, 50 mM, pH 7.4 containing 0.1% Tween 20 and 0.1% BSA, to separate bound from free radioligand. The filters were punched out and transferred to scintillation vials. Luma Safe® scintillation cocktail (2.5 ml) was added, and after 6 hr of incubation, the samples were counted for 1 min each, using a liquid scintillation counter (counting efficiency 53%). Experiments in the presence of GTP were additionally performed after preincubation of the membrane preparation with GTP for 1 hr. pIC50 and pKi values were calculated using equations for one‐site competition as implemented in GraphPad Prism 6.01 (GraphPad Inc., La Jolla, CA, USA).

[1] = versus [^3H]PSB‐15900 (5 nM), read-out: pKi (converted)
[2] = versus [³H]PSB-15900 (5 nM), read-out: Ki

Structure (SMILES)	Ki [1] [nM]	Ki [2] [nM]
C=C1C(=O)N[C@@H](C)C(=O)N(C)[C@@H](C)C(=O)N[C@@H]([C@H](OC(=O)[C@@H](NC(=O)CC)[C@H](O)C(C)C)C(C)C)C(=O)N(C)[C@@H]([C@@H](C)OC)C(=O)O[C@H](C(C)C)[C@H](NC(C)=O)C(=O)O[C@H](Cc2ccccc2)C(=O)N1C [FR, FR900359] (Ac-[X1][dPhLac][NMeDha]A[NMeA][X1](Leu(3R-OH,Nα-propionyl))[NMeT](Me); ester 1-C)	2.09	2.14 ± 0.87
C=C1C(=O)N[C@@H](C)C(=O)N(C)[C@@H](C)C(=O)N[C@@H]([C@H](OC(=O)[C@@H](NC(C)=O)[C@H](O)C(C)C)C(C)C)C(=O)N(C)[C@@H]([C@@H](C)OC)C(=O)O[C@H](C)[C@H](NC(C)=O)C(=O)O[C@H](Cc2ccccc2)C(=O)N1C [YM, YM‐254890] (Ac-T[dPhLac][NMeDha]A[NMeA][Leu(3R-O(AcLeu(3R-OH)))][NMeT](Me); ester 1-C)	2.09	2.29 ± 0.38
